This is an account of results in patent US10111883B1, “Selective P2X3 modulators” (BELLUS Health inc., priority 2017, dated 2018).

In data set [1] the test system is guinea pig cough model (citric acid and histamine). Briefly: Time course study in guinea pig cough response model. The format is in vivo. The settings on record: single oral 30 mg/kg; for anti-tussive effect (significance): 8 hours post-dose. As for the experimental part: (§1) Treatments (control, Compound 1 (0.3, 3 and 30 mg/kg) or AF-219 (0.3, 3 or 30 mg/kg)) were administered orally in seven groups of 6 animals 2 hours prior to tussive agent exposure (citric acid and histamine) and the number of coughs were counted for a period of 15 minutes.
Using the same guinea pig cough model as described in Example 2, a time course study was conducted to assess the duration of the anti-tussive effect of Compound 1 and AF-219 following the administration of a single oral 30 mg/kg dose. In this study, animals in groups of 6 were exposed to tussive agents (citric acid and histamine) at various times after the administration of the study drugs (2, 4, 6, 8 and 12 hours post-dose for Compound 1; and 2 and 8 hours post-dose for AF-219) and the number of coughs were measured for 15 minutes.

Another data set has as its system taste function. Briefly: Two bottle taste study (water vs quinine). The format is in vivo, rat. Conditions: 10 or 20 mg/kg intraperitoneally; for effect on taste function: rat; for quinine drunk relative to control: rats water-fasted overnight, volume measured for 15 minutes at Cmax. The protocol:
A rat taste model was used to compare the effect of Compound 1 on taste function with that of AF-219. Animals were water-fasted overnight and presented with one bottle of water and one bottle of (bitter-tasting) quinine at the time corresponding to the maximum plasma concentration of study drugs; and the volume of liquid consumed from each bottle was measured for 15 minutes. Treatments (control, Compound 1 (10 or 20 mg/kg) or AF-219 (10 or 20 mg/kg)) were administered intraperitoneally in two groups of 10 rats.

Data set [2] has as its system guinea pig cough model (citric acid and histamine). The experiment in a line: Guinea pig cough response model (dose response). The format is in vivo. Conditions: for reduction in cough vs. control: 2 hours prior to citric acid and histamine, coughs counted 15 minutes, statistically significant; for reduction in cough frequency as compared to the control (dose dependence): 0.3, 3 and 30 mg/kg oral.
Text: The anti-tussive effect of Compound 1 was compared to that of AF-219 in a guinea pig cough model. Guinea pigs are the most commonly used animal in cough studies for both the investigation of the cough reflex at a fundamental level and for use as an antitussive screen (Mackensie et al., Drug Discovery Today, 2004, 1, 297-302). In the guinea pig, it was shown that exposure to ATP and histamine aerosols increases cough responses to tussive stimuli via P2X3 receptor-mediated mechanisms (Kamei et al., Eur J Pharmacol (2005) 528: 158-161; Kamei et al., Eur J Pharmacol (2006) 547: 160-164).
as §1

For data set [3], the system named is P2X3 and P2X2/P2X3 channel. Briefly: Fluo-8 calcium assay, antagonism of P2X3 versus P2X2/P2X3 channels in HEK293 cells. The data set is classed as cell-based. The settings on record: human P2X3 and P2X2/P2X3 in HEK293 cells, meATP stimulation; IC50s only in FIG. 3. The protocol:
The ability of the compounds described herein and Gefapixant (also known as AF-219) to act as an antagonist of the P2X3 and P2X2/P2X3 channel (encoded by the human P2RX2 and P2RX3 genes, stably expressed in HEK293 cells) was evaluated with a Fluo-8 calcium kit. Compounds 1, 2, 9, 11, 15, and AF-219 were evaluated at twelve concentrations.
For the antagonist effect assessment, the cells were pre-incubated with Compounds 1, 2, 9, 11, 15, and AF-219 for 20 minutes, then stimulated with the P2X3 and P2X2/P2X3 agonist α,β-methyleneATP (meATP) at final concentrations of 3 μM and 30 μM. Four minutes fifty seconds after addition of meATP, ionomycin was added at a final concentration of 5 μM in order to obtain the maximum calcium influx and fluorescence signal possible from the cells. Fluorescence was recorded continuously for 10 minutes, starting 10 seconds prior to the addition of meATP.

Turning to `COc1cc(C(C)C)c(Oc2cnc(N)nc2N)cc1S(N)(=O)=O` [AF-219, Gefapixant, reference compound], in data set [1], the “duration of anti-tussive effect” value is on record as “comparable duration of effect” and the “anti-tussive effect (significance)” value was “no longer significant”. The “reduction in cough frequency compared to control (significance)” value in data set [1] (2 hours post-dose) is recorded as “statistically significant”. Moreover, in the data set with taste function, the “effect on taste function” value is on record as “altered taste function” and the “quinine drunk relative to control” value was “approximately 5 times”. Moreover, the “reduction in cough vs. control” value in data set [2] (30 mg/kg oral) amounted to 45%. Also, in data set [2], the “reduction in cough frequency as compared to the control (dose dependence)” value is reported as “comparable dose-dependent reduction in cough frequency”.

`CNC(=O)c1cc(F)c(-c2nc3cc(C)ccn3c2C[C@H]2CN(C(=O)OC)CCO2)c(F)c1` [Compound 1]: in data set [3], the “selectivity as P2X3 antagonist (P2X3 versus P2X2/3)” value (“selectivity as P2X3 antagonist” for short) is “selective P2X3 antagonists”. Also, the “duration of anti-tussive effect” value in data set [1] is “comparable duration of effect”. Also, the “reduction in cough frequency compared to control (significance)” value in data set [1] (2 hours post-dose), in data set [1] (4 hours post-dose) and in data set [1] (6 hours post-dose) was “statistically significant” throughout. Moreover, in data set [1], the “anti-tussive effect (significance)” value is “no longer significant”. Moreover, the “effect on taste function” value in the data set with taste function was “did not”. Moreover, the “quinine drunk relative to control” value with taste function was “did not drink more quinine than the control animals”. Also, the “reduction in cough vs. control” value in data set [2] (3 mg/kg oral) was 39%; in data set [2] (30 mg/kg oral), 52%. Besides, the “reduction in cough frequency as compared to the control (dose dependence)” value in data set [2] is listed as “comparable dose-dependent reduction in cough frequency”.

Consider `CCC(=O)N1CCO[C@@H](Cc2c(-c3c(F)cc(C(=O)NC)cc3F)nc3cc(C)ccn23)C1` [Compound 2], for which the “selectivity as P2X3 antagonist” value in data set [3] is given as “selective P2X3 antagonists”.

For `CNC(=O)c1cc(F)c(-c2nc3cc(C)ccn3c2C[C@H]2CN(C(C)=O)CCO2)cc1F` [Compound 9], the “selectivity as P2X3 antagonist” value in data set [3] is listed as “selective P2X3 antagonists”.

Consider `CNC(=O)c1ccc(-c2nc3cc(Cl)ccn3c2C[C@H]2CN(C(C)=O)CCO2)c(C)c1` [Compound 11], for which the “selectivity as P2X3 antagonist” value in data set [3] is listed as “selective P2X3 antagonists”.

As to `CNC(=O)c1cc(F)c(-c2nc3cc(Cl)ccn3c2C[C@H]2CN(C(C)=O)CCO2)c(F)c1` [Compound 15], the “selectivity as P2X3 antagonist” value in data set [3] was “selective P2X3 antagonists”.
